Measurements reported in US12174172B2, “Method for evaluating the efficacy of a composition in reducing the effects of cancer therapeutics on skin” (Johnson & Johnson Consumer Inc., priority 2019, dated 2024).
Values joined by “and” are separate entries in the source; they are usually repeats but may differ in a detail not shown here. Equal entries are not always repeated. Where two headings read alike, the source gives them in different places. Marks after values point to notes of the source that are not given here.

Columns and labels:
[1] = test system: Human epidermal keratinocytes cells (HPEKs), 3D micro-epidermis; test: 3D micro-epidermis model (EpiScreen): epidermis size, toxicity, dose response, classification; type: cell-based; conditions: for effect on desmoglein-1, involucrin and filaggrin expression (dose dependence): 3, 10, 30 nM; for Dose in response: variation of protein expression at 3, 10, 30 nM (EGFRi) or 3, 10, 30, 100 nM (VEGFRi); for Dose in response / Dose/response: markers in brackets; for Dose/response: supplementary table, per run (1st or 2nd Run);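 as to all read-outs here: keratinocytes on micropatterned discs in high-calcium medium, drug exposure for three days, then fixation and confocal high-content imaging of actin, nuclei and a marker, vehicle DMSO-matched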
desmoglein-1 (DSG1) [2] = test: 3D micro-epidermis model (EpiScreen): desmoglein-1 immunostaining; type: cell-based, human; conditions: for activation at 0.01 µM / activation at 0.1 µM: Homo sapiens, 72 h; for activation at 0.01 µM: 10 nM, read-out: DSG 10 nM; for DSG-1 expression: Table 1 summary; for activation at 0.1 µM: read-out: DSG 100 nM
Protocol: (§1) To assess the effects of such therapy molecules on the epidermis, keratinocytes were grown in the presence of kinase inhibitors during 3 days with high calcium concentration to induce keratinocyte differentiation and generate a 3D-stratified differentiated epidermis. Drug impact on the epidermis development was assessed via different keratinocyte markers including: • Ki-67, an universally expressed protein among proliferating cells and absent in the quiescent cells; • Filaggrin, a filament-associated protein that binds to keratin fibers and is a marker of terminal differentiation; • Desmoglein-1, a component of desmosomes and differentiation marker expressed in all epidermal layer above the basal layer; and • Involucrin, an early differentiation marker expressed in the spinous and granular layers and a protein precursor of the epidermal cornified envelope.
(§2) Human epidermal keratinocytes cells (HPEKs) from a juvenile donor (CellnTec, Switzerland) are cultured in flasks in proliferation medium. Keratinocytes are seeded at passage 6 into EpiScreen™ (Abzena, Cambridge, UK) plates containing collagen 1 coated disc micropatterns (CYTOO, Grenoble, France). Four hours later, unattached cells are washed off and a high calcium medium is added to induce keratinocytes differentiation. The day after, keratinocytes are treated with screening compounds, and Trichostatin A is added at 0.3 μM as an internal positive control. After three days of treatment, micro-epidermises are fixed with a formalin solution 10% for 30 minutes, then permeabilized with 0.1% Triton. Several immunostainings are performed: actin (Acti-Stain 555, PHDH1, Cytoskeleton), nuclei (Hoechst, H3570, Invitrogen), and one biomarker of interest per well either anti-involucrin (HPA055211, Sigma), anti-filaggrin (HPA030189, Sigma) or anti-desmoglein-1 (HPA022128, Sigma). Antibodies are added overnight at 4° C. before staining with secondary antibody, anti-rabbit 488 (711-545-152, Jackson) for 2 hours at room temperature.
(§3) Images of each well are acquired with the Operetta HCS platform (Perkin Elmer, Waltham, MA, USA) using a ×10 objective in confocal mode in eight z-planes from 2 μm to 44 μm in steps of 6 μm in each of the 3 channels: actin, nuclei, and one biomarker of interest. The first step of the image analysis consists in detecting micro-epidermis structures on the first z-plane by segmenting the actin staining. Micro-epidermis structures are validated based on several area and roundness min and max criteria. Then, the area of each biomarker staining is measured inside the valid micro-epidermis masks through each z-plane. For all homogeneous biomarker staining, their intensity through the different planes is measured.
(§4) The actin network of each micro-epidermis is analyzed in each z-plane in order to determine the average 3D structure edges. The biomarker intensity is measured in each z-plane for each structure, and then averaged with the other results generated in the same well. Based on the data generated in the two previous steps, an average 3D reconstruction image is generated. It consists of a meshwork that delimits the structure edges, and a color scaled volume that corresponds to the biomarkers distribution and expression.
The effect of 8 oncology molecules, selected from first generation EGFRi and pan-kinase inhibitors which mostly target VEGFR and second and third generation therapies targeting main mutations relating to first generation treatment resistance, were assessed in vitro using a 3D micro-epidermis model. The drug incubation concentrations (3, 10, 30, 100 nM) were selected to reflect the clinically relevant (unbound) drug exposures (Table 2). The drug impact was assessed by analysis of tissue size and keratinocyte proliferation using Ki-67 staining and keratinocyte differentiation using filaggrin, desmoglein-1 and involucrin staining. […]

involucrin (IVL) = test: 3D micro-epidermis model (EpiScreen): involucrin immunostaining; type: cell-based, human; conditions: for IVL expression: Table 1 summary; for activation at 0.1 µM: Homo sapiens, 72 h
Protocol: as §1, §2, §3, §4
The effect of 8 oncology molecules, selected from first generation EGFRi and pan-kinase inhibitors which mostly target VEGFR and second and third generation therapies targeting main mutations relating to first generation treatment resistance, were assessed in vitro using a 3D micro-epidermis model. […] The drug impact was assessed by analysis of tissue size and keratinocyte proliferation using Ki-67 staining and keratinocyte differentiation using filaggrin, desmoglein-1 and involucrin staining.
Size of the epidermis and the expression of the protein junction desmoglein-1 (DSG1), involucrin (IVL) and filaggrin (FLG) was assessed by immunostaining and compared to untreated control. […]

filaggrin (FLG) = test: 3D micro-epidermis model (EpiScreen): filaggrin immunostaining; type: cell-based, human; conditions: for activation at 0.01 µM / activation at 0.1 µM: Homo sapiens, 72 h; for FLG expression: Table 1 summary;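 as to all read-outs here: human primary epidermal keratinocytes differentiated in high calcium into 3D micro-epidermises, compound-treated for three days, imaged by confocal high-content microscopy, filaggrin staining intensity quantified within actin-segmented structures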
[3] = cited from earlier work; for Cmax: maximal plasma concentration after a single daily-recommended dose, human; for Unbound concentration: unbound plasma concentration, identified or calculated from Cmax and unbound fraction; for Unbound fraction: unbound to plasma protein
[4] = most frequent cutaneous adverse reaction reported by the FDA Adverse Event Reporting System; cited from earlier work
desmoglein-1 (DSG1) [5] = test: 3D micro-epidermis model (EpiScreen): desmoglein-1 immunostaining; type: cell-based, human; conditions: 10 μM; supplementary data; Tox = toxic
[6] = Table 1 summary of drug effect on epidermis
[7] = Table 1 summary, pro-differentiation / pro-proliferation
[8] = Table 3, 30 nM (EGFRi) or 100 nM (VEGFRi), 3 days, vs untreated control, superscript = significance footnote
[9] = Table 3, pro-proliferation or pro-differentiation
[10] = 100 nM, supplementary data, Tox = toxic
[11] = 100 nM, supplementary data, two runs, Tox = toxic
[12] = 10 nM, supplementary data, two runs, read-out: FLG 10 nM
[13] = read-out: FLG 10 nM, 10 nM, supplementary data, two runs
[14] = concentration (afatinib 3, 10, 30 nM; pan-kinase inhibitors 100 nM)
[15] = supplementary data, two runs, Tox = toxic

| Compound | Toxicity at 1 μM ([1]; 1 μM, micro-epidermis) | effect on desmoglein-1, involucrin and filaggrin expression (dose dependence) [1] | Epidermis size [1, 6] | Classification [1, 7] | Epidermis size [1, 8] | Classification [1, 9] | Dose in response ([1]; Table 3) | Dose/response [1] | DSG 3 nM (desmoglein-1 (DSG1) [2]; supplementary data) [%] | DSG 30 nM (desmoglein-1 (DSG1) [2]; supplementary data) [%] | activation at 0.01 µM (desmoglein-1 (DSG1) [2]; supplementary data) [%] | DSG-1 expression (desmoglein-1 (DSG1) [2]) | IVL 3 nM (involucrin (IVL); supplementary data) [%] | IVL 10 nM (involucrin (IVL); supplementary data, two runs) [%] | IVL 30 nM (involucrin (IVL); supplementary data) [%] | IVL expression (involucrin (IVL)) | FLG expression (filaggrin (FLG)) | Cmax [3] [nM] | Unbound fraction [3] | Major Skin Effect [4] | also measured |
| --- | --- | --- | --- | --- | --- | --- | --- | --- | --- | --- | --- | --- | --- | --- | --- | --- | --- | --- | --- | --- | --- |
| COc1cc2ncnc(Nc3ccc(F)c(Cl)c3)c2cc1NC(=O)/C=C/CN1CCCCC1 [Dacomitinib] | Yes | dose-dependent manner | Decreased | Pro-differentiation | Unchanged^4 | Pro- | Yes | Yes (DSG, IVL, | 10.00 | 54 | 32 | Increased | 15 | 31 | 60 | Increased | Increased | 178 | 0.24% | Rash | DSG 100 nM (desmoglein-1 (DSG1) [2]; [10]): Tox; IVL 100 nM (involucrin (IVL); [11]): Tox; FLG 3 nM (filaggrin (FLG); supplementary data): 8%; FLG 30 nM (filaggrin (FLG); supplementary data): 31%; FLG 100 nM (filaggrin (FLG); [11]): Tox; activation at 0.01 µM (filaggrin (FLG); [12]): 25%; Unbound concentration [3]: 0.42 nM and 0.425* nM |
| C#Cc1cccc(Nc2ncnc3cc(OCCOC)c(OCCOC)cc23)c1 [Erlotinib] | – | did not affect | Decreased | Pro-differentiation | Decreased^1 | Pro- | No | No | −7 | 1 | -2 | Increased | 13 | 16 | 22 | Increased | Increased | 1600 | 5% | Papulo-pustular | Toxicity at 1 μM [1]: Yes; activation at 0.1 µM (desmoglein-1 (DSG1) [2]; [10]): 36%; activation at 0.1 µM (involucrin (IVL); [11]): 35%; FLG 3 nM (filaggrin (FLG); supplementary data): 6%; FLG 30 nM (filaggrin (FLG); supplementary data): 10%; activation at 0.01 µM (filaggrin (FLG); [13]): 0%; activation at 0.1 µM (filaggrin (FLG); read-out: FLG 100 nM, 100 nM, supplementary data, two runs, Tox = toxic): 34% |
| CS(=O)(=O)CCNCc1ccc(-c2ccc3ncnc(Nc4ccc(OCc5cccc(F)c5)c(Cl)c4)c3c2)o1 [Lapatinib] | – | dose-dependent manner | Decreased | Pro-differentiation | Unchanged^4 | Pro- | Yes | Yes (DSG, IVL, | −6.20 | 29 | 9.6 | Increased | 17 | 14 | 30 | Increased | Increased | 516 | 1%* | Rash | Toxicity at 1 μM [1]: Yes; activation at 0.1 µM (desmoglein-1 (DSG1) [2]; [10]): 47%; activation at 0.1 µM (involucrin (IVL); [11]): 48%; FLG 3 nM (filaggrin (FLG); supplementary data): 7%; FLG 30 nM (filaggrin (FLG); supplementary data): 20%; activation at 0.01 µM (filaggrin (FLG); [12]): 9%; activation at 0.1 µM (filaggrin (FLG); 100 nM, supplementary data, two runs, Tox = toxic, read-out: FLG 100 nM): 18%; Unbound concentration [3]: 5.16* nM |
| CNC(=O)c1cc(Oc2ccc(NC(=O)Nc3ccc(Cl)c(C(F)(F)F)c3)cc2)ccn1 [Sorafenib] | Yes | – | Decreased | Pro-proliferation | Decreased^2 | Pro- | No | No | – | – | -8 | Unchanged | – | 6 | – | Unchanged | Decreased | 8180 | 0.29% | Rash | desmoglein-1 expression (desmoglein-1 (DSG1) [2]; [14]): do not impact; IVL 10 μM (involucrin (IVL); [15]): Tox; involucrin expression (involucrin (IVL); [14]): do not impact; FLG 10 μM (filaggrin (FLG); [15]): Tox; activation at 0.01 µM (filaggrin (FLG); [13]): -22%; DSG 10 μM (desmoglein-1 (DSG1) [5]): Tox |
| CCN(CC)CCNC(=O)c1c(C)[nH]c(/C=C2\C(=O)Nc3ccc(F)cc32)c1C [Sunitinib] | No | – | – | – | – | – | – | – | – | – | 15 | – | – | 0 | – | – | – | 75 | 5%* | Palmoplantar | micro-epidermis size / epidermal volume ([1]; concentration (afatinib 3-30 nM; pan-kinase inhibitors up to 100 nM)): no effect; IVL 10 μM (involucrin (IVL); [15]): 24%; FLG 10 μM (filaggrin (FLG); [15]): 101%; activation at 0.01 µM (filaggrin (FLG); [12]): -5%; DSG 10 μM (desmoglein-1 (DSG1) [5]): 27% |
